Measured values from patent US20150306237A1, “HYALURONIC ACID-ANTIOXIDANT CONJUGATES AND THEIR USES” (priority 2012, published 2015).
Marks after values point to notes of the source that are not given here.

Legend:
[1] = Antioxidant activity measurement (DPPH); assay type: biochemical; conditions: DPPH % after 60 minutes; for DPPH for moiety alone [%] ± SD, n = 3: free moiety, lower = more antioxidant
[2] = Water solubility of the moieties; assay type: physicochemical; conditions: free moiety
New-Zealand rabbits = assay: Intra-articular biocompatibility test in rabbit; assay type: in vivo
Experimental: Twelve male New-Zealand rabbits are kept in individual cages 2 weeks after reception before injection. The day of injection, they are anesthetized with Ketamin©/Domitor©, their posterior articulations shaved and disinfected with Vetedine© soap and solution. 200 ul of the selected formulations are injected into the articulations. The rabbit is then revived with Atipam©. The formulations are randomized for rabbits as well as for articulations and injected blindly.
Twice a week, a clinical examination is performed comprising the following points. For the general state; vigilance (at distance from the cage: normal, diminished, sleepy, enhanced), movements (at distance from the cage: normal, diminished), limb ledge (at distance from the cage: yes, no), limp (at distance from the cage: yes, no), hair state: (smooth and shiny, dull, bristling, dirty zones, hairless zones), wound: (yes, no), abnormal secretion: (yes, no), mucosal color: (pink, blade, congested, cyanosed). For the injected joints; swelling (from 0 to 3, 3 being strongest swelling), flow at the injection site (0-3), heat (0-3), palpation pain (from 0 to 3), mobilization pain (0-3), redness (0-3), hematoma (0-3). An echography is also performed under anesthesia comprising the following […] (external lateral, internal lateral and proximal) according to a protocol published in the literature and provides information about the presence of liquid, osteophytes and any severe cartilage erosion. After one month observation, the rabbits are sacrificed with intra-muscular injection of Ketamin©/Domitor© and intra-cardiac Dolethal©. The articulations are dissected and photographed before and after china ink embodiment to assess the state of the rotula, condyl, tibia and trochlea cartilage by a visual analogue scale (VAS) expressed in percentage of the structure degraded and by osteophytis scoring (OS) giving the presence or absence of osteophytes (0: absent, 1: present).
The femoral and tibial parts are fixed in 10% formalin solution and decalcified with Kristenson solution from Chimie-Plus Laboratoire (Denice, France) during several weeks. Samples are cut in two parasagittal sections for medial femoral and tibial condyles (left and right) and then paraffin embedded and sectioned into 4 μm thick slices. Sections were stained with Safranin O-fast green for cartilage. Synovial membranes were fixed in 10% formalin solution, cut in two or three parallel sections, paraffin embedded and sectioned into 4 μm thick slices. Each paraffin block was sectioned in three slides [one stained with hematoxylin, eosin and saffron (HES), and two stained with hematoxylin and eosin (HE)]. Histological features were evaluated in a blinded fashion except for control rabbits. Histological lesions were evaluated and scored according the OARSI histopathology initiative; -recommendations for histological assessments of osteoarthritis in the rabbit (Osteoarthritis and cartilage 18 (2010) S53-S65). Microscopic scoring of cartilage alterations, two sections per condyle were evaluated allowing a semi-quantitative grading. Several parameters were evaluated: Safranin O-fast green staining, structure, chondrocytes density, cluster formation. For microscopic scoring of synovial alterations, three sections per synovial membrane were evaluated, allowing semi-quantitative grading. Several parameters were evaluated: synoviocytes proliferation, synoviocytes hypertrophy, granulocytic infiltration, lymphoplasmacytic infiltration, lymphoplasmacytic aggregates follicles, villous hyperplasia, proliferation of fibroblasts/fibrocytes, proliferation of blood vessels, cartilage/bone detritus presence and hemosiderosis.
The above mentioned formulations were tested in term of intra-articular biocompatibility in the rabbit model; Conjugated HA linked to 4AR (n=4), unconjugated HA mixed with 4AR (n=4), 4AR (n=4) and as controls; physiological serum (n=2), untreated (n=2) and Ostenil© (n=4).

[3] = Viscosity and pH of formulations after steam sterilization; assay type: physicochemical; conditions: formulation after steam sterilization
Experimental: The gel is steam sterilized 10 minutes at 121° C. with an entire cycle of 35 minutes. For the viscosity, gels are measured with the rheological program presented before.
The target characteristics are a viscosity after heat sterilization of around 1000 [mPas], neutrality and isotonicity to plasma (around 280 [mOsmol]) in common with state of the art commercial formulations such as Ostenil©.

[4] = reference [22]; cited from earlier work
[5] = Viscosity stability in an oxidative environment (Weissberger's oxidative system, CuCl2 + ascorbic acid); conditions: gel 1 %
[6] = HA conjugate (native HA), for 4AR first value, 14 % grafting

In the case of `Nc1ccc(C(=O)O)c(O)c1` [4ASA, 4-aminosalicylic acid], the “DPPH [%] ± SD, n = 3” value [1, 6] is reported as 96%, the “DPPH for moiety alone [%] ± SD, n = 3” value [1] is reported as 27% and the “water solubility (in words)” value [2] is reported as “low water solubility”.
With `Cc1cc(=O)oc2cc(N)ccc12` [AMC] the “DPPH [%] ± SD, n = 3” value [1, 6] was 61%, the “DPPH for moiety alone [%] ± SD, n = 3” value [1] was 87% and the “water solubility (in words)” value [2] was “solubility is low”.
In the case of `Nc1ccccc1` [Aniline, aniline], the “DPPH [%] ± SD, n = 3” value [1, 6] is reported as 95%, the “DPPH for moiety alone [%] ± SD, n = 3” value [1] is reported as 36% and the “water solubility (in words)” value [2] is reported as “high water solubility”.
For `Nc1ccc(O)c(C(=O)O)c1` [5ASA, 5-aminosalicylic acid], the “DPPH [%] ± SD, n = 3” value [1, 6] was 67% and the “DPPH for moiety alone [%] ± SD, n = 3” value [1] was 34%.
For `Nc1ccc(O)cc1O` [4AR, 4-aminoresorcinol], the “Tibia OS” value (New-Zealand rabbits; 0 absent, 1 present, one month) was 0%, the “Trochlea OS” value (New-Zealand rabbits; 0 absent, 1 present, one month) was 0% and the “Rotula OS” value (New-Zealand rabbits; 0 absent, 1 small osteophyte present, one month) was 0%. For the same compound, the “Condyl OS, ext” value (New-Zealand rabbits; external, 0 absent, 1 present, one month) was 0/0%, the “Condyl VAS score, ext” value (New-Zealand rabbits; external, one month) was 0/0% and the “Tibia VAS score, ext” value (New-Zealand rabbits; external, one month) was 0***/0*** %. The “Condyl OS, int” value (New-Zealand rabbits; internal, 0 absent, 1 present, one month) was 0/0%, the “Condyl VAS score, int” value (New-Zealand rabbits; internal, one month) was 0/0% and the “Tibia VAS score, int” value (New-Zealand rabbits; internal, one month) was 0***/0*** %. For the same compound, the “Meniscus lesion (int/ext)” value (New-Zealand rabbits; one month) was 0, the “Synvovial membrane Fibrosis” value (New-Zealand rabbits; one month) was 0 and the “Synvovial membrane Inflamation” value (New-Zealand rabbits; one month) was 0. For the same compound, the “Trochlea VAS score” value (New-Zealand rabbits; one month) was 0-10* %, the “Rotula VAS score” value (New-Zealand rabbits; percentage of structure degraded, one month after 200 ul intra-articular) was 0% and the “intra-articular biocompatibility (in words)” value (New-Zealand rabbits; single injection, one month evaluation) was “no sign of non-biocompatibility”. For the same compound, the “DPPH [%] ± SD, n = 3” value ([1]; 4AR conjugate with 57 % grafting (second value of the cell)) was 37%, the “DPPH [%] ± SD, n = 3” value [1, 6] was 71% and the “DPPH for moiety alone [%] ± SD, n = 3” value [1] was 28%. For the same compound, the pH [3] was 7.25, the “cytotoxicity (in words)” value [4] was “potent cytotoxic agent” and the gain of viscosity ([5]; during the 36 minutes of measurement, Weissberger oxidative system, n=1) was 40%.
With `NCCc1ccc(O)cc1` [Tyr, tyramin] the “DPPH [%] ± SD, n = 3” value [1, 6] was 92%, the “DPPH for moiety alone [%] ± SD, n = 3” value [1] was 85% and the “viscosity behaviour / degradation in oxidative environment (in words)” value ([5]; CuCl2 + ascorbic acid) was “more degraded than HA itself”.
In the case of `CCOC(=O)[C@@H](N)CS` [EECyst, ethylester cysteine], the “DPPH [%] ± SD, n = 3” value [1, 6] is reported as 41% and the “DPPH for moiety alone [%] ± SD, n = 3” value [1] is reported as 6%.
